Data published in patent US9945862B2, “Biomarkers for predicting and assessing responsiveness of thyroid and kidney cancer subjects to lenvatinib compounds” (Eisai R&D Management Co., Ltd., priority 2011, dated 2018).

Assays:
Type in all cases: in vivo, human
[1] = system: differentiated thyroid cancer patients; experiment: Tumor shrinkage (percent change of sum of diameters of target lesions) in E7080-treated DTC patients
Method: The period during which a patient takes E7080 was artificially divided into different Cycles for ease of evaluation and tracking. Patients received E7080 at a dose of 24 mg oral once daily in 28 day cycles. For analysis purposes, assessments of clinical outcomes were performed at the time of the 9 month and at 14 month minimum follow-up. For the E7080 Thyroid Cancer trial, each Cycle is 28 days (4 weeks) so Day 1-28 is cycle 1; Day 29 is Day 1 of Cycle 2; and Day 57 is Day 1 of Cycle 3. Blood samples were collected for pharmacokinetic (PK) analysis on Cycle 1 Days 1 and 8, Cycle 2 Day 1, and Cycle 3 Day 1. A total of 9 samples per patient were collected as follows: Cycle 1 Day 1: immediately prior to the dose of E7080, and at 0.5 and 2 hours following the first dose of E7080 (post-dose); Cycle 1 Day 8: immediately prior to the dose of E7080; Cycle 2 Day 1: immediately prior to the dose of E7080, 0.5 and 2 hours post-dose; Cycle 3 Day 1: immediately prior to the dose of E7080 and 2 hours post-dose. For analysis of progression free survival, PK parameter was used as a covariate in Cox proportional hazards model.
“Tumor shrinkage” (TS) means percent change of sum of diameters of target lesions, taking as reference the baseline sum diameters.
Also changes in thyroglobulin levels were associated with tumor shrinkage after completion of cycle 2 (56 days after treatment) (Speaman's rank correlation test, Table 8, middle).
Next, the factors associated with tumor shrinkage were investigated (Pearson's correlation coefficient test, Table 11).

[2] = system: differentiated thyroid cancer patients; experiment: Multivariate prediction models of PFS combining mutations and blood biomarkers (Cox proportional hazards model, hazard threshold, log rank test); settings: pre-treatment
Method: All factors (i.e., mutations, thyroglobulin, cytokine, chemokine and angiogenic factors) were used as independent variables of interest, that is, as biomarker candidates. PFS was used as a dependent variable, that is, as one of the clinical outcomes, in this analysis. Firstly, all factors were screened according to p-values calculated by Cox proportional hazards model with single factor. Secondly, all combinations of the screened factors were tested by Cox proportional hazards model to find significant factors in all combinations of the factors. Combinations in which all factors were significant were chosen for further analysis. Hazard functions of the combinations of factors defined by their coefficients were obtained from this analysis. Each patient has his/her own hazard value for each model, so that patients can be assigned into two groups when a threshold of hazard is given for a model. After grouping patients, log rank test of progression free survival was performed to test difference of survival curves between two groups (low hazard and high hazard). The best threshold of hazard for each model of combination of factors was identified by sweeping threshold to calculate log rank test p-values and finding a threshold that minimized the smoothed curve constructed from the p-values, which was similar to the approach described in U. Abel, J. Berger and H. Wiebelt, “CRITLEVEL: An Exploratory Procedure for the Evaluation of Quantitative Prognostic Factors”, Methods Inf. Medicine, 23(3):154-6(1984). The best thresholds of the models divided patients into high and low hazard groups. Patients are predicted as longer PFS when their hazard value is lower than the threshold.

thyroglobulin = experiment: Serum thyroglobulin, chemiluminescent immunometric assay (IMMULITE 2000), pre- and post-treatment with E7080; settings: 48 days (within 2 cycles) after treatment; decrease continued to cycle 8

COc1cc2nccc(Oc3ccc(NC(=O)NC4CC4)c(Cl)c3)c2cc1C(N)=O [E7080, 4-(3-chloro-4-(cyclopropylaminocarbonyl)aminophenoxy)-7-methoxy-6-quinolinecarboxamide]
% of tumor shrinkage (Median) ([1]; KRAS, NRAS (any of gene) mutation patients): −44.5% | % of tumor shrinkage (Median) ([1]; KRAS, NRAS wild type patients): −31.0% | % of tumor shrinkage (Median) ([1]; NRAS mutation patients): −45.5% | % of tumor shrinkage (Median) ([1]; NRAS wild type patients): −35.5% | HR (low vs high hazard group, PFS) ([2]; prediction model: ANG-2): 0.545 | HR (low vs high hazard group, PFS) ([2]; prediction model: IL13 + MIP1a): 1.00E−09 | HR (low vs high hazard group, PFS) ([2]; prediction model: IL13 + MIP1a + MIP1b): 0.121 | HR (low vs high hazard group, PFS) ([2]; prediction model: NRAS mutation + ANG-2 (log10(ANg2))): 0.115 | HR (low vs high hazard group, PFS) ([2]; prediction model: NRAS mutation + ANG-2 (log10(Ang290))): 0.085 | HR (low vs high hazard group, PFS) ([2]; prediction model: NRAS mutation + VEGFA + ANG-2 + MIP1b + sVEGFR3): 2.60E−10 | HR (low vs high hazard group, PFS) ([2]; prediction model: NRAS mutation + VEGFA + MIP1b): 0.097 | HR (low vs high hazard group, PFS) ([2]; prediction model: NRAS mutation + VEGFA + MIP1b + sVEGFR3): 0.054 | HR (low vs high hazard group, PFS) ([2]; prediction model: NRAS mutation, D(NRAS, MU)): 0.124 | HR (low vs high hazard group, PFS) ([2]; prediction model: VEGFA): 0.552 | HR (low vs high hazard group, PFS) ([2]; prediction model: VEGFA + ANG-2): 0.386 | HR (low vs high hazard group, PFS) ([2]; prediction model: VEGFA + ANG-2 + GCSF): 0.413 | HR (low vs high hazard group, PFS) ([2]; prediction model: mutation in any of BRAF, KRAS, NRAS + MIP1a): 0.086 | HR (low vs high hazard group, PFS) ([2]; prediction model: mutation in any of BRAF, KRAS, NRAS + VEGFA + MIP1a + MIP1b + IL-6): 1.90E−10 | HR (low vs high hazard group, PFS) ([2]; prediction model: mutation in any of KRAS, NRAS + ANG-2): 0.083 | HR (low vs high hazard group, PFS) ([2]; prediction model: mutation in any of KRAS, NRAS, D(KRASNRAS, MU)): 0.205 | Change in serum thyroglobulin levels after treatment (thyroglobulin): significantly decreased
